# Tests used:
# [1] = system: HPAEC monolayers; assay: Transendothelial electrical resistance (TER) by ECIS in HPAEC monolayers; type: cell-based, human; conditions: for TER of HPAEC monolayers after cytoskeleton-disrupting agent: agent alone, pretreatment 30 min
# Description: Human pulmonary artery endothial cells (HPAEC) and EBM-2 complete medium were purchased from Lonza (Allendale, N.J.). HPAEC were cultured according to the manufacturer's protocol and utilized at early (3-6) passages.
# (§1) The barrier properties of endothelial cells monolayers were characterized using a highly sensitive electrical cell-substrate impedance sensing (ECIS) instrument to measure transendothelial electrical resistance (TER) as described (Birukova et al., 2004a. Microvasc Res 67(1):64-77; Kolosova et al., 2005, Circ Res 97(2):115-124). The TER data was normalized to the initial voltage.
# [2] = system: PKA; assay: PKA inhibitor test in ECIS/TER assay (HPAEC); type: cell-based, human; conditions: H-89 pretreatment 30 min, then 50 μM β-NAD
# Source text: as §1
# To elucidate the signaling pathways involved in β-NAD-induced HPAEC TER increase, the cAMP-activated protein kinase A (PKA) and the nucleotide exchange protein directly activated by cAMP (EPAC) pathways were examined. Since activation of P2Y11 receptors may lead to the Gas-mediated pathway including direct stimulation of adenylate cyclase, elevation of cAMP levels and cAMP-dependent activation of PKA, a simple inhibitory test was performed to confirm an activation of PKA and its participation in β-NAD-induced HPAEC barrier enhancement. For this test, H-89, an inhibitor of PKA activity, was used in ECIS experiments. HPAEC were pre-treated with H-89 for 30 min and then challenged with β-NAD and the effect of β-NAD-mediated barrier enhancement was determined using TER measurement.
# [3] = target: T1, P2Y11 receptor (Homo sapiens, UniProt Q96G91); assay: P2Y11 receptor antagonist study (TER, HPAEC); type: cell-based; conditions: 1 mM NF157 pretreatment 30 min, then b-NAD
# T1 construct: To deplete the mRNA content of endogenous P2Y1, P2Y11 or EPAC1; endogenous in cells; host or cells: HPAEC (human pulmonary artery endothelial cells)
# T1 sequence (Q96G91 1-374): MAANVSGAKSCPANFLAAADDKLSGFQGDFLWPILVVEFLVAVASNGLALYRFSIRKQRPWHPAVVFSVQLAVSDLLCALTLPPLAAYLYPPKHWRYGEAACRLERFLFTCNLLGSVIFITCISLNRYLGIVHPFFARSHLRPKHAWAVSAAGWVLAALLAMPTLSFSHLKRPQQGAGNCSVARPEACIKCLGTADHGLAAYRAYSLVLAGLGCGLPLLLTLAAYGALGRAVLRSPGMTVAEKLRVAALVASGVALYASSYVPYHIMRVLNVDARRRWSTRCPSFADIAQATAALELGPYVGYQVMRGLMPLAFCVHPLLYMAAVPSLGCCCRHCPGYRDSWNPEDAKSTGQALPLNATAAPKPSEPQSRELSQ
# Description: as §1
# (§2) HPAEC were pretreated with receptor-specific antagonists, MRS2279 or NF157, for 30 min, and then challenged with […] b-NAD. TER was registered throughout to examine the barrier enhancement induced by b-NAD in the presence or absence of the antagonists.
# [4] = target: T2, P2Y1 receptor (Homo sapiens, UniProt P47900); assay: P2Y1 receptor antagonist study (TER, HPAEC); type: cell-based; parameters: dose or concentration left out as unconfirmed; conditions: MRS2279 pretreatment 30 min, then b-NAD
# T2 construct: To deplete the mRNA content of endogenous P2Y1, P2Y11 or EPAC1; endogenous in cells; host or cells: HPAEC (human pulmonary artery endothelial cells)
# T2 sequence (P47900 whole entry): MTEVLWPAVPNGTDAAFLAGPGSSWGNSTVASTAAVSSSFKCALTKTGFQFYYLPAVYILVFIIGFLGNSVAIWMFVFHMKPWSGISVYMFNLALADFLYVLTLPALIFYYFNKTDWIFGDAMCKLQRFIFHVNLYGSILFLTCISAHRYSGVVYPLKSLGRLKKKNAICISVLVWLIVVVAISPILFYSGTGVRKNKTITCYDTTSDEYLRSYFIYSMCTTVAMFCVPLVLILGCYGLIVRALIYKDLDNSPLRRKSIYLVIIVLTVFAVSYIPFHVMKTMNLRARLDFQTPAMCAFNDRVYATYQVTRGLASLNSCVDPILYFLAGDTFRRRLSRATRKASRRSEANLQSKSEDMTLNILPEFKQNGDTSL
# Description: as §1, §2
# [5] = system: LPS-induced mortality in mice; assay: LPS-induced mortality / survival; type: in vivo; conditions: LPS alone, within four days
# Description: Mice were injected with β-NAD (100 mg/kg, i.p) or vehicle (saline, i.p) 10 min after LPS (20 mg/kg, i.p) challenge. As a treatment strategy, β-NAD was given twice a day (i.p) for 4 days. […]
# [6] = system: LPS-induced ALI in mice; assay: Evans Blue Dye-albumin (EBD) lung permeability; type: in vivo; conditions: LPS alone treated mice; vehicle 4.57
# Description: Mice were anesthetized with ketamine (150 mg/kg) and acetylpromazine (15 mg/kg) intraperitoneally (i.p.) before the exposure of the trachea via neck incision and intubation with 20-guage catheter and the right internal jugular vein was exposed via right chest incision for PBS or b-NAD installation. The mice were randomly divided into groups. LPS or sterile saline was instilled intratracheally (i.t.) via a 20-gauge catheter. Simultaneously, mice received either b-NAD (5.4 mg/kg, equivalent to final calculated plasma concentration […] or PBS in the control group intravenously (i.v.) through the internal jugular vein (IJ). The animals were allowed to recover for 18 hr. EBD was given through the IJ 2 hr prior to termination of the experiment. At termination, bronchoalveolar lavage (BAL) was collected. BAL was 1ml of 10% HBSS through the endotracheal catheter immediately on sacrifice with aspiration. BAL was immediately centrifuged and processed. After the BAL, ethylenediaminetetraacetic acid (EDTA) was used to flush the lungs of blood via the right heart ventricle and the lungs were then harvested. BAL and lungs were collected and stored at −70° C. for evaluation of lung injury.
# Measurement of EBD concentration in the lungs was performed by injection of EBD (20 mg/kg) into the right internal jugular vein 2 hr before the termination of the experiment to assess the vascular leak. Lungs free of blood were weighed and snap frozen in liquid nitrogen. The left lung was weighed and homogenized, then incubated with two volumes of formamide (18 hr, 60° C.) and centrifuged (5000 g, 30 min, 20° C.). The extravasated EBD concentration (mg/g, lung) in the lung homogenate was calculated against a standard curve. In a separate experiment the EBD was injected into the right internal jugular vein as described above at 2 hrs prior to termination of the experiment and the left lung gross anatomy view was photographed with a Leica NCL150 Camera.
molecule,measurement,setting,value
"C=C1[C@@H](C)[C@H]2[C@H](Cc3ccccc3)NC(=O)[C@]23OC(=O)/C=C/[C@H](O)CCC[C@@H](C)C/C=C/[C@H]3[C@@H]1O [cytochalasin B, reference compound]",TER of HPAEC monolayers after cytoskeleton-disrupting agent,[1],produced a prompt attenuation in TER
"COC(=O)Nc1nc2ccc(C(=O)c3cccs3)cc2[nH]1 [nocodazole, reference compound]",TER of HPAEC monolayers after cytoskeleton-disrupting agent,[1],compromises endothelial cell barrier integrity
"pneumolysin [PLY, reference compound]",decrease in TER from the baseline,[1]; PLY alone (125 ng/ml),~80%
O=S(=O)(NCCNC/C=C/c1ccc(Br)cc1)c1cccc2cnccc12 [H-89],effect of PKA inhibitor on β-NAD-induced TER increase,[2],attenuated the β-NAD-induced HPAEC TER increase
O=C(Nc1cccc(C(=O)Nc2cc(C(=O)Nc3ccc(S(=O)(=O)O)c4cc(S(=O)(=O)O)cc(S(=O)(=O)O)c34)ccc2F)c1)Nc1cccc(C(=O)Nc2cc(C(=O)Nc3ccc(S(=O)(=O)O)c4cc(S(=O)(=O)O)cc(S(=O)(=O)O)c34)ccc2F)c1 [NF157],effect of P2Y11 antagonist on β-NAD-induced TER increase,[3],attenuated the β-NAD-induced TER increase more significantly
CNc1nc(Cl)nc2c1ncn2[C@H]1C[C@@H](OP(=O)(O)O)[C@]2(COP(=O)(O)O)C[C@H]12 [MRS2279],effect of P2Y1 antagonist on β-NAD-induced TER increase,[4],attenuated the β-NAD-induced TER increase
"lipopolysaccharide [LPS, reference compound]",mortality,[5],100%
same,decrease in TER from the baseline,[1]; LPS (100 ng/ml) alone,~60%
same,EBD-albumin in lung (average),[6],16.81 µg/g

# Source: US20120329860A1, “Uses of Beta-Nicotinamide Adenine Dinucleotide” (MEDICAL COLLEGE OF GEORGIA INSTITUTE, INC, priority 2010, published 2012)
